This note sets out measurements from ChEMBL document CHEMBL5143569.

This experiment has as its target T1, Tyrosine-protein phosphatase non-receptor type 11 (Homo sapiens) (UniProt Q06124).
T1 sequence (whole entry): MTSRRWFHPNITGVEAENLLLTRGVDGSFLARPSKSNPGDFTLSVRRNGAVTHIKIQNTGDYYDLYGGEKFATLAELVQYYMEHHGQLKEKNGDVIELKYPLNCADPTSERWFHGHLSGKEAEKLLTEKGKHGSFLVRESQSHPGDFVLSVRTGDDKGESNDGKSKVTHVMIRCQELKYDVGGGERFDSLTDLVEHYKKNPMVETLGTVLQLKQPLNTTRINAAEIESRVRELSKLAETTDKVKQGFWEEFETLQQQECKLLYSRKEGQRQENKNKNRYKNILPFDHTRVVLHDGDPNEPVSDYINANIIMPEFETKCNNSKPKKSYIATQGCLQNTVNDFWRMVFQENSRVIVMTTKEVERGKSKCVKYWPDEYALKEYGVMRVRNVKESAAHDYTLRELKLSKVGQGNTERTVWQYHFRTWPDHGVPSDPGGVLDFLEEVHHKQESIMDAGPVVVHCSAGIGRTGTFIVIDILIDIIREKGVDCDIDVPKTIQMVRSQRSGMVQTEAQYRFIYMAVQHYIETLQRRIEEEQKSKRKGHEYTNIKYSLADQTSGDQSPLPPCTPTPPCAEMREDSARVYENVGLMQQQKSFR
Particulars: filed as negative allosteric modulator.
Description: Allosteric inhibition of recombinant human SHP2 assessed as change in melting temperature by SYPRO orange dye based thermal shift assay
Consider `CC1(N)CCN(c2cnc(SCc3ccccc3Cl)c(N)n2)CC1`, for which the ΔTm – broadly, the change in melting temperature against a reference sample – was found to be 0.44 °C.

Regarding `CC1(N)CCN(c2cnc(-c3ccc(C#N)cc3)c(N)n2)CC1`, the ΔTm came out at 0.275 °C.

On to `Nc1nc(N2CC[C@H](N)C2)cnc1-c1cccc(Cl)c1Cl`, for which the ΔTm turned out to be 1.92 °C.

As for `CC1(N)CCN(c2cnc(Sc3ccc(Cl)cc3)c(N)n2)CC1`, the ΔTm worked out at 0.43 °C.

Consider `Cc1ccc(-c2ncc(N3CCC(C)(N)CC3)nc2N)cc1`, for which the ΔTm stood at 0.42 °C.

With `CC1(N)CCN(c2cnc(Sc3ccccc3)c(N)n2)CC1`, the ΔTm came to 1.72 °C.

With `CC1(N)CCN(c2cnc(Sc3cccc(Cl)c3Cl)c(N)n2)CC1`, the ΔTm amounted to 6.24 °C.

For the compound `Nc1nc(N2CCNCC2)cnc1-c1cccc(Cl)c1Cl`, the ΔTm was 3.01 °C.

On to `CC1(N)CCN(c2cnc(Sc3ccc4ccccc4c3)c(N)n2)CC1`, for which the ΔTm was 2.23 °C.

In the case of `CC1(N)CCN(c2cnc(Sc3cccc4ccccc34)c(N)n2)CC1`, the ΔTm was determined as 3.6 °C.

On to `Nc1nc(N2CCC(N)CC2)cnc1-c1cccc(Cl)c1Cl`, for which the ΔTm amounted to 1.72 °C.

With `CC1(O)CCN(c2cnc(-c3cccc(Cl)c3Cl)c(N)n2)CC1`, the ΔTm came out at 0.435 °C.

Consider `CC1(N)CCN(c2cnc(Sc3ccccc3Cl)c(N)n2)CC1`, for which the ΔTm turned out to be 4.13 °C.

For the compound `Nc1nc(N2CCC(O)CC2)cnc1-c1cccc(Cl)c1Cl`, the ΔTm worked out at 0.36 °C.

`CC1(N)CCN(c2cnc(-c3cccc(F)c3F)c(N)n2)CC1`: the ΔTm came out at 0.52 °C.

In the case of `NCCC1CCN(c2cnc(-c3cccc(Cl)c3Cl)c(N)n2)CC1`, the ΔTm came to 2.31 °C.

Consider `CC1(N)CCN(c2cnc(Sc3ccccc3Br)c(N)n2)CC1`, for which the ΔTm is 4.47 °C.

With `NCC1CCN(c2cnc(-c3cccc(Cl)c3Cl)c(N)n2)CC1`, the ΔTm was found to be 3.67 °C.

In the case of `CC1(CN)CCN(c2cnc(Sc3cccc(Cl)c3Cl)c(N)n2)CC1`, the ΔTm came out at 7.01 °C.

On to `CC1(N)CCN(c2cnc(Sc3cccc(Cl)c3)c(N)n2)CC1`, for which the ΔTm stood at 1.7 °C.

With `CNC1CCN(c2cnc(-c3cccc(Cl)c3Cl)c(N)n2)CC1`, the ΔTm stood at 3.06 °C.

Regarding `CC1(N)CCN(c2cnc(Sc3ccccc3F)c(N)n2)CC1`, the ΔTm amounted to 2.88 °C.

Take `CC1(N)CCN(c2cnc(Sc3ccccc3C(F)(F)F)c(N)n2)CC1`: the ΔTm amounted to 3.45 °C.

Consider `CC1(N)CCN(c2cnc(SC3CCCCC3)c(N)n2)CC1`, for which the ΔTm was determined as 0.88 °C.

`CC1(N)CCN(c2cnc(-c3cccc(Cl)c3Cl)c(N)n2)CC1`: the ΔTm stood at 4.37 °C.

With `NCC1CCN(c2cnc(Sc3cccc(Cl)c3Cl)c(N)n2)CC1`, the ΔTm worked out at 4.93 °C.

Regarding `CN(CCN)c1cnc(-c2cccc(Cl)c2Cl)c(N)n1`, the ΔTm was determined as 1.06 °C.

For the compound `COc1ccccc1Sc1ncc(N2CCC(C)(N)CC2)nc1N`, the ΔTm was determined as 3.79 °C.

`Cc1ccccc1Sc1ncc(N2CCC(C)(N)CC2)nc1N`: the ΔTm is 1.75 °C.

As to `CN1CCN(c2cnc(-c3cccc(Cl)c3Cl)c(N)n2)CC1`, the ΔTm turned out to be 3.2 °C.

In the case of `CC1(N)CCN(c2cnc(SCc3ccccc3)c(N)n2)CC1`, the ΔTm is 0.38 °C.
